This note sets out measurements from US6603046B1, “Bis-aromatic a,β-unsaturated ketones” (Lica Pharmaceuticals A/S, priority 1992, dated 2003).

One experiment has as its system L. major promastigotes. The experiment in a line: L. major promastigotes from 4-days cultures, 3H-thymidine uptake (Examples 5, 14). Format: cell-based, Leishmania major. The following applies: Leishmania major, Table 14.1, read-out: percentage inhibition of promastigotes (upper figure); for inhibition at 0.5 µg/mL: 0.5 μg/ml; for inhibition at 1 µg/mL: 1 μg/ml; for inhibition at 5 µg/mL: 5 μg/ml; for inhibition at 10 µg/mL: 10 μg/ml. On the procedure: Parasite cultures. The same parasite culture as described in Example 4. Promastigotes were harvested on day 4 of the culture and used for the parasiticidal assay.
Effect on promastigotes. […] Following incubation, […] of ^3H-thymidine was added to each well and further incubated for 18 hrs. Promastigotes were then harvested on filter paper by means of a cell harvester (Skatron, Lierbyen, Norway), extensively washed with distilled water and counted in a scintillation counter (Minaxi Ti-Carb 4000, United Technologies, Packard, USA).
L. major promastigotes. The L. major promastigotes were prepared as described in Example 4 and harvested after 4 days.

Another experiment deals with P. falciparum. Put plainly: P. falciparum growth in vitro (Table 14.1, strain not stated). Conditions: Plasmodium falciparum; for inhibition at 0.5 µg/mL: 0.5 μg/ml; for inhibition at 1 µg/mL: 1 μg/ml; for inhibition at 10 µg/mL: 10 μg/ml. Format: cell-based. How it is done: The P. falciparum experimental setup was as described in Example 15.
Testing of the effect of drugs and serum on the in vitro growth of the parasites. The experiments in which compounds were tested for their ability to inhibit parasite growth were performed by a modification of the method originally described by Jensen et al. (1982). Fifty μl of parasitized erythrocytes (parasitemia approximately 1%) in a concentration of 5×10^8/ml and 50 μl of RPMI medium containing different concentrations of the test compound was added to each well of a 96 well flat-bottomed microtiter plate (Nunc). The cultures were then incubated for 48 hours, 24 hours before termination of the culture adding 20 μl of 3-H-hypoxanthine (40 uCi/ml) (New England Nuclear, Boston, Mass., USA) was added to each well. The cultures were then harvested onto glass fiber filters using a Skatron cell harvester (Skatron, Lierbyen, Norway), and the incorporation of 3-H-hypoxanthine into the DNA of dividing parasites was determined by liquid scintillation spectrometry.

Another experiment relates to human lymphocytes. The experiment in a line: Lymphocyte Proliferation Assay, 3H-thymidine incorporation (Example 13). The following applies: Homo sapiens, Lymphocyte, read-out: inhibition of lymphocytes (lower figure).
Experiment [1] relates to chloroquine resistant P. falciparum DD2 strain. The experiment in a line: In vitro growth of P. falciparum DD2, 3H-hypoxanthine uptake (Example 15). Conditions: title: percentage inhibition of 3H-hypoxanthine uptake. It is filed as cell-based, Plasmodium falciparum.
Another experiment deals with P. yoelii strain YM. Put plainly: P. yoelii strain YM infection in mice, parasitemia and mortality (Example 16). The following applies: Table 16.11; for % parasitemia (mean ± SEM): 3 h after infection, D + 1 to D + 5. Format: in vivo, BALB/c mice.
Where [2] appears, read: read-out: inhibition of malaria parasites (middle figure) (converted).
[3] abbreviates: 5 μg/ml, read-out: inhibition of malaria parasites (middle figure) (converted).
The mark [4] stands for this setting: D + 6, i.p. 20 mg/kg twice daily.
Setting [5] is: D + 6, i.p. 30 mg/kg twice daily.
Setting [6] is: D + 8, i.p. 20 mg/kg twice daily.
Setting [7] is: D + 8, i.p. 30 mg/kg twice daily.
Where [8] appears, read: D + 10, i.p. 20 mg/kg twice daily.
Setting [9] is: D + 10, i.p. 30 mg/kg twice daily to D + 5.
The mark [10] stands for this setting: D + 12, i.p. 20 mg/kg twice daily.
Where [11] appears, read: D + 14, i.p. 20 mg/kg twice daily to D + 5.
Setting [12] is: D + 14, i.p. 20 mg/kg twice daily.
[13] abbreviates: D + 16, i.p. 20 mg/kg twice daily to D + 5.
[14] abbreviates: D + 16, i.p. 20 mg/kg twice daily.

Like-named read-outs stand apart in the source and are kept apart here.

For `COc1ccc(/C=C/C(=O)c2ccccc2O)c(OC)c1`, in the experiment on L. major promastigotes, the inhibition at 0.5 µg/mL is 19.2 ± 18.1%, the inhibition at 1 µg/mL stood at 37.6 ± 18.3%, the inhibition at 5 µg/mL is 89.4 ± 13.8% and the inhibition at 10 µg/mL came out at 98.3 ± 1%. Besides, in the experiment with P. falciparum (setting [2]), the inhibition at 0.5 µg/mL is 0%, the inhibition at 1 µg/mL was 0.8% and the inhibition at 10 µg/mL was 67.9%. Also, the inhibition at 5 µg/mL with P. falciparum (setting [3]) was 23.4%. In addition, in the experiment with human lymphocytes, the inhibition at 0.5 µg/mL is 3%, the inhibition at 1 µg/mL is 5.5%, the inhibition at 5 µg/mL is 2.6% and the inhibition at 10 µg/mL came to 0%.
Turning to `COc1cccc(OC)c1/C=C/C(=O)c1ccc(O)cc1`, the inhibition at 0.5 µg/mL with L. major promastigotes was 11.4 ± 9.2%; in the experiment with P. falciparum (setting [2]), 0%; in the experiment with human lymphocytes, 0%. Besides, the inhibition at 1 µg/mL in the experiment on L. major promastigotes is 21.5 ± 10.6%; in the experiment with P. falciparum (setting [2]) it was 16.6%; in the experiment on human lymphocytes it was 3.3%. Besides, the inhibition at 5 µg/mL is 77.5 ± 4.3% with L. major promastigotes, 71% in the experiment with P. falciparum (setting [3]) and 2.3% in the experiment on human lymphocytes. The figures for the inhibition at 10 µg/mL with L. major promastigotes, with P. falciparum (setting [2]) and with human lymphocytes were 93.1 ± 4.6%, 90.6% and 4.4%, respectively.
On to `C=CCOc1ccc(C(=O)/C=C/c2ccc(OC)cc2OC)cc1` [2,4-Dimethoxy-4′-allyloxychalcone, 2,4-dimethoxy-4′-prop-2-enyloxychalcone], for which the “Growth in % of control (mean ± SEM)” value came out at 29.1 ± 10.8% in experiment [1] (0.5 μg/ml), 23.6 ± 11.2% in experiment [1] (1 μg/ml), 44.3 ± 10.5% in experiment [1] (5 μg/ml) and 75.2 ± 7.8% in experiment [1] (10 μg/ml). The “% parasitemia (mean ± SEM)” value is reported as 0.4 ± 0.2% with P. yoelii strain YM (setting [4]); 37.4 ± 0.9% in the experiment on P. yoelii strain YM (setting [5]); 55.8 ± 1.5% in the experiment on P. yoelii strain YM (D + 6, i.p. 40 mg/kg twice daily); 0.8 ± 0.2% with P. yoelii strain YM (setting [6]); 67.2 ± 0.9% in the experiment with P. yoelii strain YM (setting [7]); 83 ± 2.1% with P. yoelii strain YM (D + 8, i.p. 40 mg/kg twice daily). For the same compound, the “% parasitemia (mean ± SEM)” value in the experiment with P. yoelii strain YM (setting [8]) turned out to be 14.3 ± 4.0%; with P. yoelii strain YM (setting [10]), 32.4 ± 4.0%; in the experiment with P. yoelii strain YM (setting [12]), 7%; with P. yoelii strain YM (setting [14]), 0%. Also, the “mortality (no. of dead mice/total no. of tested mice)” value in the experiment with P. yoelii strain YM (D + 8, i.p. 40 mg/kg twice daily to D + 5) was “(2/5)”; in the experiment on P. yoelii strain YM (setting [9]), “(5/5)”; in the experiment with P. yoelii strain YM (D + 10, i.p. 40 mg/kg twice daily to D + 5) it was “(5/5)”; with P. yoelii strain YM (setting [11]) it was 3/5; with P. yoelii strain YM (setting [13]), 3/5.
With `COc1ccc(/C=C/C(=O)c2ccc(O)cc2)c(OC)c1` [2,4-Dimethoxy-4′-hydroxychalcone, 2,4-dimethoxy-4′-hydroxychalcone], the “Growth in % of control (mean ± SEM)” value in experiment [1] (0.5 μg/ml) amounted to 18.6 ± 7.2%; in experiment [1] (1 μg/ml) it was 21.8 ± 7.3%; in experiment [1] (5 μg/ml) it was 46.8 ± 6.6%; in experiment [1] (10 μg/ml), 68.0 ± 4.7%. Also, the “% parasitemia (mean ± SEM)” value in the experiment on P. yoelii strain YM (setting [4]) stood at 4.8 ± 1.5%; with P. yoelii strain YM (setting [5]), 46.4 ± 2.1%; with P. yoelii strain YM (setting [6]) it was 12.4 ± 2.4%; in the experiment on P. yoelii strain YM (setting [7]), 70.8 ± 3.5%; with P. yoelii strain YM (setting [8]), 58.6 ± 14%; in the experiment on P. yoelii strain YM (setting [10]) it was 25%. The “% parasitemia (mean ± SEM)” value came to 6% in the experiment on P. yoelii strain YM (setting [12]) and 0% in the experiment on P. yoelii strain YM (setting [14]). In addition, the “mortality (no. of dead mice/total no. of tested mice)” value in the experiment on P. yoelii strain YM (D + 6, i.p. 40 mg/kg twice daily to D + 5) is “(5/5)”; with P. yoelii strain YM (D + 8, i.p. 30 mg/kg twice daily to D + 5), “(1/5)”; with P. yoelii strain YM (setting [9]) it was “(5/5)”; in the experiment with P. yoelii strain YM (D + 12, i.p. 20 mg/kg twice daily to D + 5), 3/5; with P. yoelii strain YM (setting [11]), 3/5; in the experiment with P. yoelii strain YM (setting [13]), 3/5.
On to `COc1ccc(/C=C/C(=O)c2ccccc2)c(OC)c1` [drawing 67], for which, in the experiment on L. major promastigotes, the inhibition at 0.5 µg/mL was 14.5 ± 11.6%, the inhibition at 1 µg/mL stood at 27 ± 13.7%, the inhibition at 5 µg/mL is 77.8 ± 11.3% and the inhibition at 10 µg/mL came out at 95.5 ± 3.8%. Also, the inhibition at 5 µg/mL in the experiment with P. falciparum (read-out: inhibition of malaria parasites (middle figure)) is 35.6%. In the experiment on P. falciparum (setting [2]), the inhibition at 0.5 µg/mL is 0%, the inhibition at 1 µg/mL was 14.7% and the inhibition at 10 µg/mL was 81.8%. In the experiment on human lymphocytes, the inhibition at 0.5 µg/mL is 9.1%, the inhibition at 1 µg/mL was 9.2%, the inhibition at 5 µg/mL is 2% and the inhibition at 10 µg/mL was 3.1%.
Regarding `COc1ccc(/C=C/C(=O)c2ccc(O)cc2)c(OC)c1` [drawing 70], in the experiment on L. major promastigotes, the inhibition at 0.5 µg/mL was determined as 20 ± 20.6%, the inhibition at 1 µg/mL is 29 ± 22.2%, the inhibition at 5 µg/mL came to 66.9 ± 15.9% and the inhibition at 10 µg/mL is 90.9 ± 7.4%. Moreover, in the experiment with P. falciparum (setting [2]), the inhibition at 0.5 µg/mL was 2.2%, the inhibition at 1 µg/mL was 14.8% and the inhibition at 10 µg/mL was 64.2%. The inhibition at 5 µg/mL in the experiment on P. falciparum (setting [3]) is 31.6%. Further, in the experiment on human lymphocytes, the inhibition at 0.5 µg/mL is 1.5%, the inhibition at 1 µg/mL was 6.3%, the inhibition at 5 µg/mL is 2.4% and the inhibition at 10 µg/mL is 4%.
Turning to `COc1ccc(OC)c(/C=C/C(=O)c2ccc(O)cc2)c1` [drawing 71], in the experiment on L. major promastigotes, the inhibition at 0.5 µg/mL is 34.3%, the inhibition at 1 µg/mL was 61.9%, the inhibition at 5 µg/mL is 96.2% and the inhibition at 10 µg/mL was 99.1%. In addition, in the experiment on P. falciparum (setting [2]), the inhibition at 0.5 µg/mL was 15.2%, the inhibition at 1 µg/mL is 23.1% and the inhibition at 10 µg/mL is 93.1%. Moreover, in the experiment with P. falciparum (setting [3]), the inhibition at 5 µg/mL is 71%. Moreover, in the experiment on human lymphocytes, the inhibition at 0.5 µg/mL came out at 3.2%, the inhibition at 1 µg/mL came out at 6.9%, the inhibition at 5 µg/mL was 78.8% and the inhibition at 10 µg/mL stood at 98.2%.
For `COc1ccc(/C=C/C(=O)c2ccc(O)cc2)cc1OC` [drawing 73], in the experiment on L. major promastigotes, the inhibition at 0.5 µg/mL was determined as 17.8%, the inhibition at 1 µg/mL was 34.3%, the inhibition at 5 µg/mL amounted to 65.6% and the inhibition at 10 µg/mL worked out at 80%. In the experiment on P. falciparum (setting [2]), the inhibition at 0.5 µg/mL is 21%, the inhibition at 1 µg/mL was 35.1% and the inhibition at 10 µg/mL is 73.4%. For the same compound, the inhibition at 5 µg/mL with P. falciparum (setting [3]) is 39.9%. In the experiment with human lymphocytes, the inhibition at 0.5 µg/mL amounted to 0%, the inhibition at 1 µg/mL was 0.1%, the inhibition at 5 µg/mL is 5.2% and the inhibition at 10 µg/mL was 27.4%.
Consider `C=CCOc1ccc(C(=O)/C=C/c2cc(OC)ccc2OC)cc1` [drawing 78], for which, in the experiment with L. major promastigotes, the inhibition at 0.5 µg/mL came out at 10 ± 9.7%, the inhibition at 1 µg/mL was found to be 15.6 ± 15.1%, the inhibition at 5 µg/mL was 63 ± 15.1% and the inhibition at 10 µg/mL turned out to be 89.4 ± 10.2%. In the experiment with P. falciparum (setting [2]), the inhibition at 0.5 µg/mL was 0%, the inhibition at 1 µg/mL was 0% and the inhibition at 10 µg/mL is 80%. In the experiment on P. falciparum (setting [3]), the inhibition at 5 µg/mL is 35%. In the experiment on human lymphocytes, the inhibition at 0.5 µg/mL is 5.7%, the inhibition at 1 µg/mL is 12.6%, the inhibition at 5 µg/mL is 4.3% and the inhibition at 10 µg/mL was 2.3%.
